Data: patent US7674823B2, “DNA-PK inhibitors” (Cancer Research Technology Limited, priority 2001, dated 2010)

Test system: not given
Test: not given
Details: not given

Row | melting point [°C] | SMILES
1 | 161 to 162 | O=c1cc(N2CCOCC2)cc(-c2ccccc2)o1 [Compound 1, 4-morpholin-4-yl-6-(phenyl)-pyran-2-one]
2 | 230 to 232 | CC(C)(C)c1ccc(-c2cc(N3CCOCC3)cc(=O)o2)cc1 [Compound 2, 4-morpholin-4-yl-6-(4-(t-butyl)phenyl)-pyran-2-one]
3 | 212 to 213 | COc1ccc(-c2cc(N3CCOCC3)cc(=O)o2)cc1 [Compound 3, 6-(4-methoxyphenyl)-4-morpholin-4-yl-pyran-2-one]
4 | 240 to 242 | O=c1cc(N2CCSCC2)nc2c3ccccc3ccn12 [Compound 6, 2-Thiomorpholin-4-yl-pyrimido[2,1-a]isoquinolin-4-one]
5 | 214 to 216 | CC1CCC(C)N(c2cc(=O)n3ccc4ccccc4c3n2)C1 (stereo not drawn) [Compound 7, 2-(2,5-Dimethyl-piperidin-1-yl)pyrimido[2,1-a]isoquinolin-4-one]
6 | 165 to 166 | O=c1cc(N2CCCC(CO)C2)nc2c3ccccc3ccn12 (stereo not drawn) [Compound 9, 2-(3-Hydroxymethyl-piperidin-1-yl)pyrimido[2,1-a]isoquinolin-4-one]
7 | 174 to 175 | O=c1cc(NCC2CCCO2)nc2c3ccccc3ccn12 (stereo not drawn) [Compound 10, 2-[(Tetrahydro-furan-2-ylmethyl)-amino]pyrimido[2,1-a]isoquinolin-4-one]
8 | 211 to 212 | O=c1cc(N(CCO)CCO)nc2c3ccccc3ccn12 [Compound 11, 2-[Bis-(2-hydroxy-ethyl)-amino]pyrimido[2,1-a]isoquinolin-4-one]
9 | 208 to 209 | C[C@@H]1CN(c2cc(=O)n3ccc4ccccc4c3n2)C[C@H](C)O1 [Compound 13, 2-((2S,6R)-2,6-Dimethyl-morpholin-4-yl)-pyrimido[2,1-a]isoquinolin-4-one]
10 | 195 to 196 | CN(CC(O)c1ccccc1)c1cc(=O)n2ccc3ccccc3c2n1 (stereo not drawn) [Compound 16, 2-[(2-Hydroxy-2-phenyl-ethyl)-methyl-amino]-pyrimido[2,1-a]isoquinolin-4-one]
11 | 166 to 167 | CN(CCC#N)c1cc(=O)n2ccc3ccccc3c2n1 [Compound 17, 3-[Methyl-(4-oxo-4H-pyrimido[2,1-a]isoquinolin-2-yl)-amino]-propionitrile]
12 | 162 to 163 | O=c1cc(NCCc2cccs2)nc2c3ccccc3ccn12 [Compound 18, 2-(2-Thiophen-2-yl-ethylamino)-pyrimido[2,1-a]isoquinolin-4-one]
13 | 215 to 216 | O=c1cc(NCC(O)CO)nc2c3ccccc3ccn12 (stereo not drawn) [Compound 19, 2-(2,3-Dihydroxypropylamino)-pyrimido[2,1-a]isoquinolin-4-one]
14 | 199 to 200 | CC(O)CNc1cc(=O)n2ccc3ccccc3c2n1 (stereo not drawn) [Compound 20, 2-(2-Hydroxypropylamino)-pyrimido[2,1-a]isoquinolin-4-one]
15 | 159 to 161 | O=c1cc(NCC(O)c2cccc(O)c2)nc2c3ccccc3ccn12 (stereo not drawn) [Compound 21, 2-[2-Hydroxy-2-(3-hydroxy-phenyl)-ethylamino]-pyrimido[2,1-a]isoquinolin-4-one]
16 | 218 to 221 | O=c1cc(NCCO)nc2c3ccccc3ccn12 [Compound 22, 2-(2-Hydroxy-ethylamino)-pyrimido[2,1-a]isoquinolin-4-one]

Row | melting point [°C] | SMILES
17 | 137 to 138 | O=c1cc(-c2ccccc2F)oc(N2CCOCC2)c1 [Compound 290, 6-(2-fluorophenyl)-2-(morpholin-4-yl)pyran-4-one]
18 | 205 to 207 | O=c1cc(N2CCCCC2)oc2c1ccc1ccccc12 [Compound 295, 2-piperidin-1-yl-benzo[h]chromen-4-one]
19 | 218 to 220 | O=c1cc(N2CCOCC2)oc2ccc(-c3ccccc3)cc12 [Compound 298, 2-(Morpholin-4-yl)-6-phenylchromen-4-one]
20 | 148 | Cc1cccc2c(=O)cc(N3CCOCC3)oc12 [Compound 302, 8-Methyl-2-morpholin-4-yl-chromen-4-one]
21 | 165 | COc1cccc2c(=O)cc(N3CCOCC3)oc12 [Compound 303, 8-Methoxy-2-morpholin-4-yl-chromen-4-one]
22 | 177.8 to 178.9 | O=c1cc(N2CCOCC2)oc2c(OS(=O)(=O)C(F)(F)F)cccc12 [Compound 305, Trifluoro-methanesulfonic acid 2-morpholin-4-yl-4-oxo-4H-chromen-8-yl ester]
23 | 143 to 145 | O=c1cc(N2CCOCC2)oc2cc(OS(=O)(=O)C(F)(F)F)ccc12 [Compound 306, Trifluoro-methanesulfonic acid 2-morpholin-4-yl-4-oxo-4H-chromen-7-yl ester]
24 | 147 to 149 | O=c1cc(N2CCOCC2)oc2ccc(Br)cc12 [Compound 308, 6-Bromo-2-morpholin-4-yl-chromen-4-one]
25 | 211 to 212.5 | C[C@@H]1CN(c2cc(=O)c3ccc4ccccc4c3o2)C[C@H](C)O1 [Compound 309, 2-(2,6-cis-dimethyl-morpholin-4-yl)-benzo[h]chromen-4-one]
26 | 208 to 209 | O=c1cc(N2CCNCC2)oc2c1ccc1ccccc12 [Compound 311, 2-piperazin-1-yl-benzo[h]chromen-4-one]
27 | 209 to 210 | O=c1cc(N2CCCC(CO)C2)oc2c1ccc1ccccc12 (stereo not drawn) [Compound 313, 2-(3-Hydroxymethyl-piperidin-1-yl)-benzo[h]chromen-4-one]
28 | 184 to 185 | CN1CCN(c2cc(=O)c3ccc4ccccc4c3o2)CC1 [Compound 314, 2-(4-Methyl-piperazin-1-yl)-benzo[h]chromen-4-one]
29 | 139 to 140 | O=c1cc(NCC2CCCO2)oc2c1ccc1ccccc12 (stereo not drawn) [Compound 316, 2-[(Tetrahydrofuran-2-ylmethyl)-amino]-benzo[h]chromen-4-one]
30 | 167 to 168 | O=c1cc(N2CCOCC2)oc2cc(OCc3ccccc3Cl)ccc12 [Compound 417, 7-(2-Chlorobenzyloxy)-2-morpholin-4-yl-chromen-4-one]
31 | 187 to 188 | O=c1cc(N2CCOCC2)oc2cc(OCC3CCCCC3)ccc12 [Compound 419, 7-Cyclohexylmethoxy-2-(morpholin-4-yl)-chromen-4-one]

Molecular target: T1, Mammalian DNA-PK, isolated from Hela cell nuclear extract (Homo sapiens, UniProt P78527)
T1 construct: Mammalian DNA-PK, isolated from Hela cell nuclear extract; endogenous in cells; host or cells: HeLa cell nuclear extract (purified per Gell and Jackson 1999)
Test: DNA-PK inhibition assay (33P-ATP, filter binding)
Format: biochemical
Details: not given
Experimental: In order to assess the inhibitory action of the compounds against DNA-PK in vitro, the following assay was used to determine IC50 values.
The total assay volume per well was 40 μl.
After 10 minutes of incubation at 30° C. the reactions were initiated by the addition of Na-ATP (50 μM final), ^33p-γATP and a 30mer double stranded DNA oligonucleotide (10 ng/μl) in a volume of 10 μl. Designated positive and negative reaction wells were done in combination with compound wells (unknowns) in order to calculate % enzyme activities. The plates were then shaken for 2 minutes and incubated at 30° C. for 45 minutes.
Following the incubation, the reactions were quenched by the addition of 50 μl 30% acetic acid to each well. The plates were then shaken for 5 minutes and the contents of each plate (80 μl from each well) transferred over to a 96 well Polyfiltronics filtration plate, containing P81-phosphocellulose membrane (TRADE MARK)(Whatman, UK). The solutions were vacuum pumped through the membrane and each well membrane washed four times using 300 μl of 15% acetic acid. The well membranes were then air dried and 20 μl of scintillant was added to each well.
The plates were transferred to a TopCount NXT (TRADE MARK) (Packard, UK) for scintillation counting. Values recorded are counts per minute (cpm) following a 1 minute counting time for each well.
The enzyme activity for each compound is then calculated using the following equation: […]
These are determined over a range of different concentrations, normally from 10 μM down to 0.01 μM. Such IC50 values are used as comparative values to identify increased compound potencies.

Row | IC50 [nM] | SMILES
32 | < 1000 | COc1ccc(-c2cccc3c(=O)cc(N4CCOCC4)oc23)cc1 [Compound 385]
33 | < 1000 | O=c1cc(N2CCOCC2)oc2c(-c3cccc(-c4ccccc4)c3)cccc12 [Compound 389]
34 | < 1000 | O=c1cc(N2CCOCC2)oc2c(-c3ccc(CO)cc3)cccc12 [Compound 394]

Same assay, conditions: IC50 of less than about 1 μM and/or % inhibition of more than about 50 at 1 μM; read-out: DNA-PK inhibition IC50 (particular efficacy)

Row | IC50 [nM] | SMILES
35 | < 1000 | O=c1cc(N2CCSCC2)nc2c3ccccc3ccn12 [Compound 6, 2-Thiomorpholin-4-yl-pyrimido[2,1-a]isoquinolin-4-one]
36 | < 1000 | O=c1cc(N2CCOCC2)oc2cc(OCCS(=O)(=O)c3ccccc3)ccc12 [Compound 366]
37 | < 1000 | O=C1c2ccccc2C(=O)N1Cc1cccc(-c2ccc3c(=O)cc(N4CCOCC4)oc3c2)c1 [Compound 375]
38 | < 1000 | O=c1cc(N2CCOCC2)oc2c(-c3ccsc3)cccc12 [Compound 403]
39 | < 1000 | O=c1cc(N2CCOCC2)oc2c(-c3cc4ccccc4s3)cccc12 [Compound 408]
40 | < 1000 | CC(=O)c1ccc(-c2cccc3c(=O)cc(N4CCOCC4)oc23)s1 [Compound 409]
41 | < 1000 | O=c1cc(N2CCOCC2)oc2c(-c3cccc4c3oc3ccccc34)cccc12 [Compound 410]

Same assay, conditions: concentration at which 50% of the enzyme activity is inhibited; read-out: DNA-PK Inhibition IC50

Row | IC50 [nM] | SMILES
42 | 5000 | O=c1cc(N2CCSCC2)nc2c3ccccc3ccn12 [Compound 6, 2-Thiomorpholin-4-yl-pyrimido[2,1-a]isoquinolin-4-one]
43 | 8000 | C[C@@H]1CN(c2cc(=O)n3ccc4ccccc4c3n2)C[C@H](C)O1 [Compound 13, 2-((2S,6R)-2,6-Dimethyl-morpholin-4-yl)-pyrimido[2,1-a]isoquinolin-4-one]
44 | 700 | O=c1cc(N2CCOCC2)oc2ccc(O)cc12 [Compound 343, 6-Hydroxy-2-(morpholin-4-yl)-chromen-4-one]
45 | 1000 | O=c1cc(N2CCOCC2)oc2cc(OCC3CCCCC3)ccc12 [Compound 419, 7-Cyclohexylmethoxy-2-(morpholin-4-yl)-chromen-4-one]
